“Also recorded” adds a separate entry of the source.
Legend:
[1] = tested on: pY1068EGFR, pY416Src, pJak2, pShc, pErk1/2, pS473Akt; format: cell-based, human; details: concentrations that inhibit intracellular Stat3 activation (3-10 μM)
Description: (§1) FIG. 2. […] Positions of STATs:DNA complexes or proteins in gel are labeled; control lanes (0) represent nuclear extracts treated with 0.05% DMSO, or nuclear extracts or whole-cell lysates prepared from 0.05% DMSO-treated cells. Values shown in each panel are means plus standard deviations of at least four independent transfections, each performed in triplicate. For each transfection, luciferase activity was normalized to transfection efficiency, with β-Gal activity as an internal control. *-<0.05. Data are representative of 3-4 independent determinations. FIG. 2 (H). […] FIG. 2 (I).
(§2) Turkson et al., Novel peptidomimetic inhibitors of signal transducer and activator of transcription 3 dimerization and biological activity. […] Mol. Cell. […] Mol. Cell. […] Mol. Cell.

[2] = tested on: Bcl-2, Bcl-xL, Cyclin D1, c-Myc, and Survivin; test: Immunoblotting of Stat3-regulated gene expression; details: MDA-MB-231 and U251 cells; 24 h-treatment (5 uM)
Stat1:Stat1 = target: T1, Stat1:Stat1 (Mus musculus, UniProt P42225); test: Stat1 DNA-binding activity, EMSA with MGFe probe, nuclear extracts of EGF-stimulated NIH3T3/hEGFR; format: biochemical; details: for effect on Stat1:Stat1 DNA-binding activity: EMSA, MGFe probe; for disruption of Stat1 DNA-binding activity: concentrations up to 20 μM
T1 construct: endogenous in cells; host or cells: EGF-stimulated NIH3T3/hEGFR (nuclear extract)
T1 sequence (P42225 2-749 limits assumed): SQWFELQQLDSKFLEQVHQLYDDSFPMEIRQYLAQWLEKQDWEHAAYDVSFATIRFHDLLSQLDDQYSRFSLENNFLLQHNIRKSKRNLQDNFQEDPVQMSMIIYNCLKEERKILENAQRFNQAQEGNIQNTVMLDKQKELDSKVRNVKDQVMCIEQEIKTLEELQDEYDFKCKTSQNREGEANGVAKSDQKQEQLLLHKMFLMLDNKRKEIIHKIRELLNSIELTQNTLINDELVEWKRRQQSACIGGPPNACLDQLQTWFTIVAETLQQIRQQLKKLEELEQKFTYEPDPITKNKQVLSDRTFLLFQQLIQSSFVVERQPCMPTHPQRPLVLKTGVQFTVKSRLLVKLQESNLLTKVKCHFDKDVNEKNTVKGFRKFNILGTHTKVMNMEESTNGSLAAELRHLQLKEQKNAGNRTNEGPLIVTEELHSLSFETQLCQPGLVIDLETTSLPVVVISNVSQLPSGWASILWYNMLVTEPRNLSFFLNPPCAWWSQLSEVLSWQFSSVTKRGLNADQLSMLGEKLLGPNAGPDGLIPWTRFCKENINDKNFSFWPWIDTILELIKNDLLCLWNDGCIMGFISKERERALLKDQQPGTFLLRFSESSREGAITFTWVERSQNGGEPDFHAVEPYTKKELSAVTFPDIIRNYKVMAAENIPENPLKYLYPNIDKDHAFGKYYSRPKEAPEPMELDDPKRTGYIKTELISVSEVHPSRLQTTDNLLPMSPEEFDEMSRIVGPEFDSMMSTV
Description: Nuclear extract preparations and electrophoretic mobility shift assay (EMSA) were carried out as previously described. Yu et al., 1995; Turkson et al., Stat3 activation by Src induces specific gene regulation and is required for cell transformation. Mol. Cell. Biol. 18:2545-2552 (1998). The ^32P-labeled oligonucleotide probes used were hSIE (high affinity sis-inducible element from the c-fos gene, m67 variant, 5′-[…]) (SEQ ID NO: 1) that binds Stat1 and Stat3 and MGFe (mammary gland factor element from the bovine β-casein gene promoter, 5′-[…]) (SEQ ID NO: 2) for Stat1 and Stat5 binding. Wagner et al., The SIF binding element confers sis/PDGF inducibility onto the c-fos promoter. EMBO J. 9:4477-4484 (1990); Gouilleux et al., Prolactin and interleukin-2 receptors in T lymphocytes signal through a MGF-STATS-like transcription factor. Endocrinology 136:5700-5708 (1995). Except where indicated, nuclear extracts were pre-incubated with compound for 30 min at room temperature prior to incubation with the radiolabeled probe for 30 min at 30° C. before subjecting to EMSA analysis. Bands corresponding to DNA-binding activities were scanned and quantified for each concentration of compound using ImageQuant and plotted as percent of control (vehicle) against concentration of compound, from which the IC50 values were derived, as previously reported. […] J Biol Chem. 280:32979-32988 (2005).
[…]. Zhang et al. (2012). […]. Siddiquee et al., Selective chemical probe inhibitor of Stat3, identified through structure-based virtual screening, induces antitumor activity, Proc Natl Acad Sci USA. 104:7391-7396 (2007).

[3] = tested on: Stat3-dependent luciferase reporter, pLucTKS3; test: Stat3-dependent luciferase reporter in NIH3T3 co-transfected with v-Src; format: cell-based, mouse; details: 3 or 5 μM
Description: as §1, §2

[4] = In vivo pharmacokinetic analysis, serum and brain tissue levels; parameters: species or system mouse; details: mice, single dose tail vein injection 3 mg/kg
[5] = tested on: Stat3-independent luciferase reporter, pLucSRE; test: Stat3-independent luciferase reporter in NIH3T3 co-transfected with v-Src; format: cell-based, mouse; details: similar treatment (3 or 5 μM)
Description: as §1, §2

EGF receptor and Stat3 = EGF receptor and Stat3 (Mus musculus, UniProt P42227); test: Co-immunoprecipitation of EGF receptor and Stat3 in EGF-stimulated NIH3T3/EGFR; details: pre-treatment 10 μM for 5 min to 24 h
EGF receptor and Stat3, sequence (P42227 2-770 limits assumed): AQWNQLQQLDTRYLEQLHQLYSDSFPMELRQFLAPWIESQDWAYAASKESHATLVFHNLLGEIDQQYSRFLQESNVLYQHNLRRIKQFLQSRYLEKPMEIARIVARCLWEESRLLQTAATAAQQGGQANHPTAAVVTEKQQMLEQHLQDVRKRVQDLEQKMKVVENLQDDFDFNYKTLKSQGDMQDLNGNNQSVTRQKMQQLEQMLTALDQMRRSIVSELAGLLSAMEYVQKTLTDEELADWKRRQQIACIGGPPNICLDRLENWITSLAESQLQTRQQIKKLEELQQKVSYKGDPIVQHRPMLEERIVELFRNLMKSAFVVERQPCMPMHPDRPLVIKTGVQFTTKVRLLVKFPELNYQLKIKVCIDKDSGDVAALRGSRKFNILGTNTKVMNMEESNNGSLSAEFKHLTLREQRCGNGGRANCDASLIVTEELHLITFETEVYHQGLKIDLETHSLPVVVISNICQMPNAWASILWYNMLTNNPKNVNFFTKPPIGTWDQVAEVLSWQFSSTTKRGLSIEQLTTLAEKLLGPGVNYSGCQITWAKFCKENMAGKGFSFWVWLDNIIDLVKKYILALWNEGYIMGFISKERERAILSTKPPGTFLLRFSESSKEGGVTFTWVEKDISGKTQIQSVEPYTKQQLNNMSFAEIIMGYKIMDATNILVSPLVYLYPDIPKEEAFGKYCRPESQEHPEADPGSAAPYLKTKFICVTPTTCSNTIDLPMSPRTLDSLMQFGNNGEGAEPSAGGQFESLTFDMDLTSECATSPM
Description: (§3) Primary antibodies used were anti-Stat3, pY705Stat3, pY416Src, Src, pErk1/2, Erk1/2, EGFR, pEGFR, pJAK2, c-Myc, Bcl-xL, Bcl-2, Survivin, and β-Actin (Cell Signaling, Danvers), and VEGF (Santa Cruz Biotech, Santa Cruz).

U251 cells = test: Intracellular levels by LC-MS of cell extracts; format: in vitro ADME, human; details: U251 cells treated once with 5 μM
Description: The intracellular and tissue levels of SH5-07 were studied, following a single treatment.

pY705Stat3 = pY705Stat3 (Mus musculus, UniProt P42227); test: EGF-induced Stat3 phosphorylation in NIH3T3/hEGFR, immunoblotting; details: cells pre-treated for 24 h, 10 μM
pY705Stat3, sequence (P42227 whole entry): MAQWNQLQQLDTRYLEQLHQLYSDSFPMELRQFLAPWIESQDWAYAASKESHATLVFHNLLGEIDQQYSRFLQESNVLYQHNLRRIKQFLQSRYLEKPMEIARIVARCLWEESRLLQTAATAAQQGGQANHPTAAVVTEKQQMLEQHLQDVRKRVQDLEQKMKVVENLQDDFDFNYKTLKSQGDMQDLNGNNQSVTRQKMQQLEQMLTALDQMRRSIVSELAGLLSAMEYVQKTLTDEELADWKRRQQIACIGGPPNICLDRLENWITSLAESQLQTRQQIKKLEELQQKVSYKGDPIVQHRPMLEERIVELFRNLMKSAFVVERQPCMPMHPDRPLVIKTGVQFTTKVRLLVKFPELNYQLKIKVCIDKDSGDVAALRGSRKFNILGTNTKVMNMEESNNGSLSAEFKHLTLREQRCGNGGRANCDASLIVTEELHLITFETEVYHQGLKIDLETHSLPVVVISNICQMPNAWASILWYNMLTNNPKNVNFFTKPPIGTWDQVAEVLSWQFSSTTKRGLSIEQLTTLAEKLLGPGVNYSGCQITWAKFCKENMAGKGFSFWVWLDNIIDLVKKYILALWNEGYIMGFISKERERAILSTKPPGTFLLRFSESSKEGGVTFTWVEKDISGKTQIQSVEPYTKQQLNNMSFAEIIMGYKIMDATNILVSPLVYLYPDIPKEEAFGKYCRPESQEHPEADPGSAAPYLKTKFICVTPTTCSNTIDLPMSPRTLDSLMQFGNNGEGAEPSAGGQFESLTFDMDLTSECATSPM
Description: as §3

[6] = tested on: glioma, breast cancer or pancreatic cancer; test: Treatment of subjects with cancer; format: in vivo; details: intravenous or oral, 0.08 mg/kg to 0.4 mg/kg

## CN(CC(=O)N(Cc1ccc(C2CCCCC2)cc1)c1ccc(C(=O)O)cc1)S(=O)(=O)c1c(F)c(F)c(F)c(F)c1F [SH4-54]
[1]
  effect on phosphorylation of EGFR, Src, Jak2, Shc, ERK1/2, Akt: little or no effect
[2]
  expression of Stat3-regulated genes: down-regulated
Stat1:Stat1
  effect on Stat1:Stat1 DNA-binding activity: little or no effect; also recorded: minimal effects
  disruption of Stat1 DNA-binding activity: little or no disruption

## CN(CC(=O)N(Cc1ccc(C2CCCCC2)cc1)c1ccc(C(=O)NO)cc1)S(=O)(=O)c1c(F)c(F)c(F)c(F)c1F [SH5-07]
[3]
  induction by v-Src of pLucTKS3 luciferase reporter: significantly (p<0.01) inhibited
[4]
  average level in brain tissue at 10 min: 7.76 fmole/mg tissue
  average level in brain tissue at 60 min: 8.19 fmole/mg tissue
[4]; mouse, serum, intravenous, read-out: average level in serum at 10 min post-dosing
  concentration at 10 min: 13.5 µM
[4]; mouse, serum, intravenous, read-out: average level in serum at 60 min
  concentration at 60 min: 4.67 µM
[5]
  induction of pLucSRE luciferase reporter: no attenuating effect
EGF receptor and Stat3
  co-IP between EGF receptor and Stat3 promoted by EGF: suppressed
[2]
  expression of Stat3-regulated genes: down-regulated; also recorded: significantly suppressed
U251 cells
  intracellular levels at 1 h: 1,238±181 μM
  intracellular levels at 6 h: 27.6 µM
  intracellular levels at 24 h: background levels
pY705Stat3
  EGF-induced Stat3 phosphorylation (pY705Stat3): inhibited
Stat1:Stat1
  effect on Stat1:Stat1 DNA-binding activity: little or no effect; also recorded: minimal effects
  disruption of Stat1 DNA-binding activity: little or no disruption
[6]
  tumor response in subjects: shrinkage of the tumors, or slowing of the progession of tumor growth is observed
